This note sets out measurements from patent publication US20150087673A1, “METHODS FOR USING AND BIOMARKERS FOR AMPK-ACTIVATING COMPOUNDS” (RIGEL PHARMACEUTICALS, INC., priority 2013, published 2015).

The subject of the assay is AMPK. The assay is described as follows: AMPK activation assay (enzyme-linked immunosorbent assay). The class given is cell-based. In outline:
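Compounds were tested for their capacity to activate the kinase using standard, commercially available kit reagents and procedures.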
One may read the EC50 as the concentration needed to bring the measured effect to its halfway point. Regarding `N#Cc1ccc(CN2CCC(NC(=O)c3ccc(C(=O)Nc4ccn(Cc5ccc(C#N)cc5)n4)cn3)CC2)cc1` [Compound 38, N^5-(1-(4-cyanobenzyl)-1H-pyrazol-3-yl)-N^2-(1-(4-cyanobenzyl)piperidin-4-yl)pyridine-2,5-dicarboxamide], the EC50 was in the range of 500 to 1000 nM.

`O=C(N[C@H]1CC[C@@H](Oc2cc(F)cc(F)c2)CC1)c1ccc(C(=O)N2CCC(Oc3ccc(F)cc3)CC2)cn1` [Compound 299, N-((cis)-4-(3,5-difluorophenoxy)cyclohexyl)-5-(4-(4-fluorophenoxy)piperidine-1-carbonyl)picolinamide] displayed an EC50 of under 500 nM.

`N#Cc1ccc(CN2CC[C@@H](NC(=O)c3ccc(C(=O)N4CCN(Cc5ccc(F)cc5)CC4)cn3)[C@@H](F)C2)cc1` [Compound 100] gave an EC50 of under 500 nM.

Take `COc1ccc(CN2CCC(NC(=O)c3ccc(C(=O)N4CCC(C(=O)c5ccc(N6CCCC6)cc5)CC4)nc3)CC2)cc1` [Compound 439, N-(1-(4-methoxybenzyl)piperidin-4-yl)-6-(4-(4-(pyrrolidin-1-yl)benzoyl)piperidine-1-carbonyl)nicotinamide]: the concentration for a half-maximal effect (EC50) is under 500 nM.

The compound `N#Cc1ccc(CN2CCC(NC(=O)c3ccc(C(=O)N4CCC(Oc5ccc(NC(=O)C6CC6)cc5)CC4)nc3)CC2)cc1` [Compound 409, N-(1-(4-cyanobenzyl)piperidin-4-yl)-6-(4-(4-(cyclopropanecarboxamido)phenoxy)piperidine-1-carbonyl)nicotinamide] displayed an EC50 of under 500 nM.

In the case of `COc1ccc(CC2CCN(C(=O)c3ccc(C(=O)NC4CCN(Cc5ccc(C#N)cc5)CC4)nc3)CC2)cc1` [Compound 131, N-(1-(4-cyanobenzyl)piperidin-4-yl)-5-(4-(4-methoxybenzyl)piperidine-1-carbonyl)picolinamide], the EC50 is under 500 nM.

Turning to `O=C(NC1CCN(Cc2ccc(Cl)cc2)CC1)c1ccc(C(=O)N2CCN(Cc3ccc(F)cc3)CC2)cn1` [Compound 52], the concentration for a half-maximal effect (EC50) is under 500 nM.

For the compound `N#Cc1ccc(CN2CCC(NC(=O)c3ccc(C(=O)N4CCN(c5ccc(S(=O)(=O)C6CC6)cc5)CC4)cn3)CC2)cc1` [Compound 256, N-(1-(4-cyanobenzyl)piperidin-4-yl)-5-(4-(4-(cyclopropylsulfonyl)phenyl)piperazine-1-carbonyl)picolinamide], the concentration giving a half-maximal response (EC50) was under 500 nM.

For `N#Cc1ccc(CN2CCC(NC(=O)c3ccc(C(=O)N4CCC(Oc5ccc(SC(F)(F)F)cc5)CC4)cn3)CC2)cc1` [Compound 410, N-(1-(4-cyanobenzyl)piperidin-4-yl)-5-(4-(4-(trifluoromethylthio)phenoxy)piperidine-1-carbonyl)picolinamide], the EC50 was under 500 nM.

Take `N#Cc1ccc(CN2CCC(NC(=O)c3ncc(C(=O)N4CCN(Cc5ccc(F)cc5)CC4)cc3C#CCNC(=O)COCCOCCOCCOCCNC(=O)CCCC[C@@H]3SC[C@@H]4NC(=O)N[C@@H]43)CC2)cc1` [Compound 159, N-(1-(4-cyanobenzyl)piperidin-4-yl)-3-(5,20-dioxo-24-((3aS,4S,6aR)-2-oxohexahydro-1H-thieno[3,4-d]imidazol-4-yl)-7,10,13,16-tetraoxa-4,19-diazatetracos-1-ynyl)-5-(4-(4-fluorobenzyl)piperazine-1-carbonyl)picolinamide]: the concentration for a half-maximal effect (EC50) was 1000 to 5000 nM.

Regarding `N#Cc1ccc(CN2CCC(NC(=O)c3ccc(N4CCC(Oc5ccc(C#N)cc5)CC4)cn3)CC2)cc1` [Compound 165, N-(1-(4-cyanobenzyl)piperidin-4-yl)-5-(4-(4-cyanophenoxy)piperidin-1-yl)picolinamide], the half-maximal effective concentration (EC50) was under 500 nM.

In turn, `N#Cc1ccc(OC2CCN(C(=O)c3ccc(C(=O)N[C@H]4CC[C@@H](Oc5ccc(F)cc5)CC4)nc3)CC2)cc1` [Compound 303, 5-(4-(4-cyanophenoxy)piperidine-1-carbonyl)-N-((cis)-4-(4-fluorophenoxy)cyclohexyl)picolinamide] registered an EC50 of under 500 nM.

Turning to `N#Cc1ccc(CN2CCC(NC(=O)c3ccc(C(=O)N4CCN(Cc5cc(F)cc(F)c5)CC4)cn3)CC2)cc1` [Compound 140, N-(1-(4-cyanobenzyl)piperidin-4-yl)-5-(4-(3,5-difluorobenzyl)piperazine-1-carbonyl)picolinamide], the EC50 is under 500 nM.

On to `CS(=O)(=O)c1ccc(C(=O)C2CCN(C(=O)c3ccc(C(=O)N[C@@H]4CCN(Cc5ccc(OC(F)(F)F)cc5)C[C@H]4F)nc3)CC2)cc1` (relative stereo) [Compound 253, N-((trans)-3-fluoro-1-(4-(trifluoromethoxy)benzyl)piperidin-4-yl)-5-(4-(4-(methylsulfonyl)benzoyl)piperidine-1-carbonyl)picolinamide], for which the concentration giving a half-maximal response (EC50) lay in the range of 500 to 1000 nM.

The compound `N#Cc1ccc(CN2CCC(NC(=O)c3ncc(C(=O)N4CCN(Cc5ccc(F)cc5)CC4)cc3CCCNC(=O)CCOCCOCCOCCOCCNC(=O)CCCC[C@@H]3SC[C@@H]4NC(=O)N[C@@H]43)CC2)cc1` [Compound 291, N-(1-(4-cyanobenzyl)piperidin-4-yl)-3-(5,21-dioxo-25-((3aS,4S,6aR)-2-oxohexahydro-1H-thieno[3,4-d]imidazol-4-yl)-8,11,14,17-tetraoxa-4,20-diazapentacosyl)-5-(4-(4-fluorobenzyl)piperazine-1-carbonyl)picolinamide] returned an EC50 of under 500 nM.

Take `N#Cc1ccc(OC2CCN(C(=O)c3ccc(C(=O)NCCOc4ccc(F)cc4)nc3)CC2)cc1` [Compound 306, 5-(4-(4-cyanophenoxy)piperidine-1-carbonyl)-N-(2-(4-fluorophenoxy)ethyl)picolinamide]: the half-maximal effective concentration (EC50) is under 500 nM.

`N#Cc1ccc(CN2CCC(NC(=O)c3ccc(C(=O)N4CCC(Oc5ccc(C(F)(F)F)cc5)CC4)cn3)CC2)cc1` [Compound 157, N-(1-(4-cyanobenzyl)piperidin-4-yl)-5-(4-(4-(trifluoromethyl)phenoxy)piperidine-1-carbonyl)picolinamide] registered a half-maximal effective concentration (EC50) of under 500 nM.

In turn, `N#Cc1ccc(OC2CN(C(=O)c3ccc(C(=O)NC4CCN(Cc5cc(F)cc(F)c5)CC4)nc3)C2)cc1` [Compound 313, 5-(3-(4-cyanophenoxy)azetidine-1-carbonyl)-N-(1-(3,5-difluorobenzyl)piperidin-4-yl)picolinamide] yielded a half-maximal effective concentration (EC50) of under 500 nM.

Compound `O=C(c1ccccc1)c1ccc(NC(=O)c2ccc(C(=O)N3CCN(Cc4ccc(F)cc4)CC3)cn2)cc1` [Compound 26, N-(4-benzoylphenyl)-5-(4-(4-fluorobenzyl)piperazine-1-carbonyl)picolinamide] gave an EC50 of under 500 nM.

The compound `CS(=O)(=O)c1ccc(OC2CCN(C(=O)c3ccc(C(=O)NC4CCN(Cc5cccc(OC(F)(F)F)c5)CC4)nc3)CC2)cc1` [Compound 242, 5-(4-(4-(methylsulfonyl)phenoxy)piperidine-1-carbonyl)-N-(1-(3-(trifluoromethoxy)benzyl)piperidin-4-yl)picolinamide] showed an EC50 of under 500 nM.

In turn, `N#Cc1ccc(CN2CCC(NC(=O)c3ccc(C(=O)N4CCN(C(=O)c5ccccc5)CC4)cn3)CC2)cc1` [Compound 80, 5-(4-benzoylpiperazine-1-carbonyl)-N-(1-(4-cyanobenzyl)piperidin-4-yl)picolinamide] returned an EC50 of 1000 to 5000 nM.

In turn, `O=C(c1ccc(Nc2ccc(Oc3ccccc3)cc2)nc1)N1CCN(Cc2ccc(F)cc2)CC1` [Compound 34, (4-(4-fluorobenzyl)piperazin-1-yl)(6-(4-phenoxyphenylamino)pyridin-3-yl)methanone] had a 50% effective concentration (EC50) of 1000 to 5000 nM.

`O=C(N[C@H]1CC[C@@H](Oc2ccc(F)cc2)CC1)c1ccc(C(=O)N2CCC(Oc3ccc(F)cc3)CC2)cn1` [Compound 312, N-((cis)-4-(4-fluorophenoxy)cyclohexyl)-5-(4-(4-fluorophenoxy)piperidine-1-carbonyl)picolinamide]: the half-maximal effective concentration (EC50) was under 500 nM.

Take `COc1ccc(C(=O)C2CCN(c3ccc(C(=O)NC4CCN(Cc5ccc(C#N)cc5)CC4)nn3)CC2)cc1` [Compound 362, N-(1-(4-cyanobenzyl)piperidin-4-yl)-6-(4-(4-methoxybenzoyl)piperidin-1-yl)pyridazine-3-carboxamide]: the EC50 was under 500 nM.

With `COc1ccc(C(=O)C2CCN(C(=O)c3ccc(C(=O)NC4CCN(Cc5ccc(N)cc5)CC4)cn3)CC2)cc1` [Compound 400, N-(1-(4-aminobenzyl)piperidin-4-yl)-6-(4-(4-methoxybenzoyl)piperidine-1-carbonyl)nicotinamide], the EC50 lay within 1000 to 5000 nM.

`N#Cc1ccc(CN2CCC(NC(=O)c3ccc(C(=O)N4CCC(Cc5ccc(F)cc5)CC4)cn3)CC2)cc1` [Compound 130, N-(1-(4-cyanobenzyl)piperidin-4-yl)-5-(4-(4-fluorobenzyl)piperidine-1-carbonyl)picolinamide]: the half-maximal effective concentration (EC50) was under 500 nM.

Take `N#Cc1ccc(CN2CCC(NC(=O)c3ccc(C(=O)N4CCN(Cc5ccc(F)cc5)CC4)nc3)CC2)cc1` [Compound 1]: the EC50 is under 500 nM.

Consider `O=C(Nc1ccc(-c2ccccc2)cc1)c1ccc(C(=O)N2CCN(Cc3ccc(F)cc3)CC2)cn1` [Compound 11], for which the EC50 was under 500 nM.

Compound `COc1cc(C#N)ccc1OC1CCN(c2ccc(C(=O)NC3CCN(Cc4ccc(C#N)cc4)CC3)nc2)CC1` [Compound 286, 5-(4-(4-cyano-2-methoxyphenoxy)piperidin-1-yl)-N-(1-(4-cyanobenzyl)piperidin-4-yl)picolinamide] yielded a 50% effective concentration (EC50) of under 500 nM.

For `COc1cccc(CC2CCN(C(=O)c3ccc(C(=O)NC4CCN(Cc5ccc(C#N)cc5)CC4)nc3)CC2)c1` [Compound 147, N-(1-(4-cyanobenzyl)piperidin-4-yl)-5-(4-(3-methoxybenzyl)piperidine-1-carbonyl)picolinamide], the half-maximal effective concentration (EC50) was under 500 nM.

As to `N#Cc1ccc(CN2CCC(NC(=O)c3ccc(C(=O)N4CCN(c5ccc(C#N)cc5)CC4)cn3)CC2)cc1` [Compound 340, N-(1-(4-cyanobenzyl)piperidin-4-yl)-5-(4-(4-cyanophenyl)piperazine-1-carbonyl)picolinamide], the 50% effective concentration (EC50) is under 500 nM.

For the compound `COc1ccc(O[C@H]2CC[C@@H](NC(=O)c3ccc(C(=O)N4CCC(Oc5ccc(C(F)(F)F)cc5)CC4)cn3)CC2)cc1` [Compound 185, N-((cis)-4-(4-methoxyphenoxy)cyclohexyl)-5-(4-(4-(trifluoromethyl)phenoxy)piperidine-1-carbonyl)picolinamide], the concentration giving a half-maximal response (EC50) is under 500 nM.
